Holding throughout (assay type): in vivo
For one assay, the system named is Alopecurus myosuroides. Nature of the assay: Indoor herbicide activity determination, Seed Treatment; pre-emergence (soil spray). Particulars: Dosage 240 g a.i./ha. The method in brief:
(§1)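 Weed seeds sown in 7 cm pots of sandy nutrient soil (pH 6.1, 1% organic matter), kept 24 h in a constant-temperature lit room, then soil sprayed by traveling spray tower (flow 390 mL/min). Fresh-weight inhibition % versus untreated controls scored 21 days later.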

A further assay has as its system Leptochloa chinensis. Described as above. Particulars: Dosage 240 g a.i./ha. The method in brief:
as §1

The test system of the next assay is Alopecurus japonicus. Described as above. Particulars: Dosage 240 g a.i./ha. The method in brief:
as §1

The next assay concerns Eleusine indica. The assay is described as above. The settings on record: Dosage 240 g a.i./ha. The method in brief: as §1
The subject of another assay is Lolium multiflorum. Described as above. Particulars: Dosage 240 g a.i./ha. In a few lines:
as §1

The test system of another assay is Cyperus iria. The assay can be described thus: Indoor herbicide activity determination, post-emergence (stem and leaf spray at 2-4 leaf stage). The settings on record: 504 h, 60 g a.i./ha, determined 21 days later, read-out: Inhibition rate of fresh weight, Cyperus iria. In a few lines:
(§2)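 Potted weeds in sandy nutrient soil (pH 6.1, 1% organic matter) were grown in a constant-temperature illuminated room to the 2-4 leaf stage, then given a stem-and-leaf spray. Plants went back to the culture room once the spray had dried in shade. At 21 days, fresh weight inhibition % was calculated relative to untreated control plants.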

A further assay has as its system Eclipta prostrata. The description is as above. Particulars: 504 h, 60 g a.i./ha, determined 21 days later, read-out: Inhibition rate of fresh weight, Eclipta prostrata. In a few lines:
as §2

Another assay relates to Digitaria sanguinalis. The description is as above. Particulars: 504 h, 60 g a.i./ha, determined 21 days later, read-out: Inhibition rate of fresh weight, Digitaria sanguinalis. The method in brief: as §2

In general, inhibition refers to how much of the control response was suppressed. For `C=CC1(C(=O)N[C@H]2C[C@@H](C(=O)O)C2)CC(c2cc(F)cc(Cl)c2)=NO1` (mixture of isomers) [I-27], the “Herbicidal activities, Alopecurus myosuroides (inhibition rate class)” value in the assay on Alopecurus myosuroides is “A (A indicates that the inhibition rate was greater than or equal to 80% to 100%)”. The “Herbicidal activities, Leptochloa chinensis (inhibition rate class)” value in the assay on Leptochloa chinensis is on record as “A (A indicates that the inhibition rate was greater than or equal to 80% to 100%)”. For the same molecule, the “Herbicidal activities, Alopecurus japonicus (inhibition rate class)” value with Alopecurus japonicus is on record as “A (A indicates that the inhibition rate was greater than or equal to 80% to 100%)”. For the same molecule, the “Herbicidal activities, Eleusine indica (inhibition rate class)” value with Eleusine indica is “A (A indicates that the inhibition rate was greater than or equal to 80% to 100%)”. The “Herbicidal activities, Lolium multiflorum (inhibition rate class)” value in the assay on Lolium multiflorum is listed as “A (A indicates that the inhibition rate was greater than or equal to 80% to 100%)”. Besides, the inhibition at 60 g/ha in the assay on Cyperus iria was 80 to 100%; in the assay with Eclipta prostrata, 40 to 60%; with Digitaria sanguinalis it was 80 to 100%.
`COC(=O)[C@H]1C[C@@H](NC(=O)C2(C)CC(c3cc(F)cc(Cl)c3)=NO2)C1` (mixture of isomers) [I-134]: in the assay with Alopecurus myosuroides, the “Herbicidal activities, Alopecurus myosuroides (inhibition rate class)” value is listed as “A (A indicates that the inhibition rate was greater than or equal to 80% to 100%)”. In addition, the “Herbicidal activities, Leptochloa chinensis (inhibition rate class)” value with Leptochloa chinensis is recorded as “A (A indicates that the inhibition rate was greater than or equal to 80% to 100%)”. Also, the “Herbicidal activities, Alopecurus japonicus (inhibition rate class)” value in the assay with Alopecurus japonicus was “A (A indicates that the inhibition rate was greater than or equal to 80% to 100%)”. Further, in the assay with Eleusine indica, the “Herbicidal activities, Eleusine indica (inhibition rate class)” value is “A (A indicates that the inhibition rate was greater than or equal to 80% to 100%)”. The “Herbicidal activities, Lolium multiflorum (inhibition rate class)” value with Lolium multiflorum was “A (A indicates that the inhibition rate was greater than or equal to 80% to 100%)”. Also, the inhibition at 60 g/ha in the assay with Cyperus iria lay in the range of 80 to 100%; in the assay with Eclipta prostrata, 60 to 80%; in the assay on Digitaria sanguinalis, 80 to 100%.
Regarding `CC1(C(=O)N[C@H]2C[C@@H](C(=O)O)C2)CC(c2cc(Cl)cc(Cl)c2)=NO1` (mixture of isomers) [I-137], the “Herbicidal activities, Alopecurus myosuroides (inhibition rate class)” value with Alopecurus myosuroides is reported as “A (A indicates that the inhibition rate was greater than or equal to 80% to 100%)”. In the assay on Leptochloa chinensis, the “Herbicidal activities, Leptochloa chinensis (inhibition rate class)” value is listed as “A (A indicates that the inhibition rate was greater than or equal to 80% to 100%)”. The “Herbicidal activities, Alopecurus japonicus (inhibition rate class)” value in the assay on Alopecurus japonicus was “A (A indicates that the inhibition rate was greater than or equal to 80% to 100%)”. The “Herbicidal activities, Eleusine indica (inhibition rate class)” value in the assay on Eleusine indica is reported as “A (A indicates that the inhibition rate was greater than or equal to 80% to 100%)”. For the same molecule, in the assay on Lolium multiflorum, the “Herbicidal activities, Lolium multiflorum (inhibition rate class)” value was “A (A indicates that the inhibition rate was greater than or equal to 80% to 100%)”. The results for the inhibition at 60 g/ha with Cyperus iria, in the assay with Eclipta prostrata and in the assay on Digitaria sanguinalis were 80 to 100%, 40 to 60% and 80 to 100%, respectively.
For `O=C(N[C@H]1C[C@@H](C(=O)O)C1)C1(C(F)(F)F)CC(c2cc(F)cc(Cl)c2)=NO1` (mixture of isomers) [I-223], the “Herbicidal activities, Alopecurus myosuroides (inhibition rate class)” value in the assay with Alopecurus myosuroides was “A (A indicates that the inhibition rate was greater than or equal to 80% to 100%)”. In addition, the “Herbicidal activities, Leptochloa chinensis (inhibition rate class)” value in the assay on Leptochloa chinensis is on record as “A (A indicates that the inhibition rate was greater than or equal to 80% to 100%)”. Besides, the “Herbicidal activities, Alopecurus japonicus (inhibition rate class)” value in the assay with Alopecurus japonicus is “A (A indicates that the inhibition rate was greater than or equal to 80% to 100%)”. In the assay with Eleusine indica, the “Herbicidal activities, Eleusine indica (inhibition rate class)” value is listed as “A (A indicates that the inhibition rate was greater than or equal to 80% to 100%)”. Moreover, the “Herbicidal activities, Lolium multiflorum (inhibition rate class)” value with Lolium multiflorum is listed as “A (A indicates that the inhibition rate was greater than or equal to 80% to 100%)”. The inhibition at 60 g/ha in the assay on Cyperus iria was 80 to 100%; in the assay with Eclipta prostrata, 60 to 80%; with Digitaria sanguinalis it was 80 to 100%.
With `O=C(N[C@H]1C[C@@H](C(=O)O)C1)C1(C(F)(F)F)CC(c2cc(F)cc(OC(F)(F)F)c2)=NO1` (relative stereo) [I-249], the “Herbicidal activities, Alopecurus myosuroides (inhibition rate class)” value in the assay on Alopecurus myosuroides is on record as “A (A indicates that the inhibition rate was greater than or equal to 80% to 100%)”. Further, the “Herbicidal activities, Leptochloa chinensis (inhibition rate class)” value in the assay on Leptochloa chinensis is on record as “A (A indicates that the inhibition rate was greater than or equal to 80% to 100%)”. The “Herbicidal activities, Alopecurus japonicus (inhibition rate class)” value in the assay on Alopecurus japonicus was “A (A indicates that the inhibition rate was greater than or equal to 80% to 100%)”. For the same molecule, the “Herbicidal activities, Eleusine indica (inhibition rate class)” value in the assay on Eleusine indica is “A (A indicates that the inhibition rate was greater than or equal to 80% to 100%)”. Also, the “Herbicidal activities, Lolium multiflorum (inhibition rate class)” value with Lolium multiflorum is listed as “A (A indicates that the inhibition rate was greater than or equal to 80% to 100%)”. Moreover, the inhibition at 60 g/ha in the assay with Cyperus iria lay within 80 to 100%; with Eclipta prostrata, 60 to 80%; in the assay with Digitaria sanguinalis, 80 to 100%.
In the case of `CC1(C(=O)N[C@H]2C[C@@H](C(=O)O)C2)CC(c2cc(F)cc(F)c2)=NO1` (mixture of isomers) [I-111], in the assay on Alopecurus myosuroides, the “Herbicidal activities, Alopecurus myosuroides (inhibition rate class)” value is “A (A indicates that the inhibition rate was greater than or equal to 80% to 100%)”. For the same molecule, the “Herbicidal activities, Leptochloa chinensis (inhibition rate class)” value in the assay with Leptochloa chinensis is “A (A indicates that the inhibition rate was greater than or equal to 80% to 100%)”. In the assay with Alopecurus japonicus, the “Herbicidal activities, Alopecurus japonicus (inhibition rate class)” value is listed as “A (A indicates that the inhibition rate was greater than or equal to 80% to 100%)”. For the same molecule, the “Herbicidal activities, Eleusine indica (inhibition rate class)” value with Eleusine indica is listed as “A (A indicates that the inhibition rate was greater than or equal to 80% to 100%)”. Also, the “Herbicidal activities, Lolium multiflorum (inhibition rate class)” value in the assay on Lolium multiflorum was “A (A indicates that the inhibition rate was greater than or equal to 80% to 100%)”. Also, the results for the inhibition at 60 g/ha with Cyperus iria, with Eclipta prostrata and in the assay with Digitaria sanguinalis were 80 to 100%, 60 to 80% and 80 to 100%, respectively.
`C=CC1(C(=O)N[C@H]2C[C@@H](C(=O)OC)C2)CC(c2cc(Cl)cc(Cl)c2)=NO1` (mixture of isomers) [I-39]: the “Herbicidal activities, Alopecurus myosuroides (inhibition rate class)” value in the assay with Alopecurus myosuroides is “A (A indicates that the inhibition rate was greater than or equal to 80% to 100%)”. The “Herbicidal activities, Leptochloa chinensis (inhibition rate class)” value in the assay on Leptochloa chinensis is “A (A indicates that the inhibition rate was greater than or equal to 80% to 100%)”. In addition, the “Herbicidal activities, Alopecurus japonicus (inhibition rate class)” value in the assay with Alopecurus japonicus was “A (A indicates that the inhibition rate was greater than or equal to 80% to 100%)”. In the assay on Eleusine indica, the “Herbicidal activities, Eleusine indica (inhibition rate class)” value is on record as “A (A indicates that the inhibition rate was greater than or equal to 80% to 100%)”. Besides, the “Herbicidal activities, Lolium multiflorum (inhibition rate class)” value in the assay with Lolium multiflorum is on record as “A (A indicates that the inhibition rate was greater than or equal to 80% to 100%)”. Also, the inhibition at 60 g/ha with Cyperus iria was in the range of 80 to 100%; in the assay on Eclipta prostrata, 60 to 80%; in the assay on Digitaria sanguinalis, 80 to 100%.
Turning to `COC(=O)[C@H]1C[C@@H](NC(=O)C2(C)CC(c3cc(Cl)cc(Cl)c3)=NO2)C1` (mixture of isomers) [I-139], in the assay with Alopecurus myosuroides, the “Herbicidal activities, Alopecurus myosuroides (inhibition rate class)” value was “A (A indicates that the inhibition rate was greater than or equal to 80% to 100%)”. Besides, in the assay with Leptochloa chinensis, the “Herbicidal activities, Leptochloa chinensis (inhibition rate class)” value is on record as “A (A indicates that the inhibition rate was greater than or equal to 80% to 100%)”. For the same molecule, the “Herbicidal activities, Alopecurus japonicus (inhibition rate class)” value with Alopecurus japonicus is listed as “A (A indicates that the inhibition rate was greater than or equal to 80% to 100%)”. In addition, the “Herbicidal activities, Eleusine indica (inhibition rate class)” value in the assay on Eleusine indica is “A (A indicates that the inhibition rate was greater than or equal to 80% to 100%)”. In addition, in the assay on Lolium multiflorum, the “Herbicidal activities, Lolium multiflorum (inhibition rate class)” value is listed as “A (A indicates that the inhibition rate was greater than or equal to 80% to 100%)”. Further, the inhibition at 60 g/ha is 80 to 100% with Cyperus iria, 40 to 60% in the assay on Eclipta prostrata and 80 to 100% in the assay on Digitaria sanguinalis.

These data come from patent EP4722201A1, “3-PHENYLISOXAZOLINE-5-CARBOXAMIDE COMPOUND, AND PREPARATION METHOD THEREFOR, HERBICIDAL COMPOSITION THEREOF AND USE THEREOF” (Jiangsu Flag Chemical Industry Co., Ltd, priority 2023, dated 2024).
